Measurements from patent US20160206579A1 (INSERM (Institut National de la Santé et de la Recherche …, priority 2009, published 2016).

Experiments:
[1] = tested on: glutamate N-methyl-D-aspartate (NMDA) receptors; conditions: Seki M et al., 2008; cited from earlier work
[2] = tested on: retinal ganglion cells; assay: Retinal ganglion cell degeneration induced by vigabatrin in young rats, Brn3A-positive RGC count in retinal sections; format: in vivo, Wistar rats
Description: Breeds of Wistar rats Rj Wi IOPS Han were purchased from Janvier (Le Genest-St-Isle, France). Vigabatrin (VGB) dissolved in 0.9% NaCl was administered at 0.6 mg/jour (6 mg/ml, 0.1 ml) to rats by daily intraperitoneal injection for 25 days from age 4 days. These daily doses (50 mg/kg for rats of 12 g) are in-line with those described for the treatment of epilepsy (adult patients: […]; children:50-75 mg/kg; or infants: 100-150 mg/kg) (Aicardi et al., 1996; Chiron et al., 1997; Lux et al., 2004).
Animals were anesthetized by intraperitoneal injection (0.8 to 1.2 ml/kg) of a solution containing ketamine (40 mg/ml) and xylazine (4 mg/ml Rompum). They were then perfused first with heparin 1000 UI/ml in saline solution (0.9% NaCl), then with fixative containing 4% Paraformaldehyde (Merck chemicals ref.: 100496) and 0.2% glutaraldehyde (fluka 25%). Eye cups were isolated and fixed overnight at 4° C. in 4% (wt/vol) paraformaldehyde in phosphate buffered saline (PBS; 0.01M, pH 7.4). The tissue was cryoprotected in successive solutions of PBS containing 10%, 20% and 30% sucrose at 4° C., oriented along the dorso-ventral axis and embedded in OCT (Labonord, Villeneuve d'Ascq, France). Retinal sections (8-10 μm thickness) were permeabilised for five minutes in PBS containing 0.1% Triton X-100 (Sigma, St. Louis, Mo.), rinsed, and incubated in PBS containing 1% bovine serum albumin (Eurobio, Les-Ulis, France), 0.1% Tween 20 (Sigma), and 0.1% sodium azide (Merck, Fontenay-Sous-Bois, France) for two hours at room temperature. The primary Brn3A monoclonal antibody (Chemicon) was added to the solution and incubated for two hours at room temperature. Sections were rinsed and then incubated with the secondary antibody, rabbit anti-mouse IgG conjugated to either Alexa™594 (1:500, Molecular Probes) for two hours. […] Quantifications were achieved on whole vertical sections cut along the dorso-ventral axis and crossing the optic nerve. […]

[3] = tested on: pure adult rat RGC in culture; assay: Survival of pure cultured retinal ganglion cells (live-dead viability test, 6 DIV vs 1 DIV); format: cell-based, Long Evans rat; conditions: 1 mM taurine, 6 days in culture
Text: Primary cultures of pure ganglion cells: Primary cultures of retinal ganglion cells (RGC) were isolated from retinae of adult Long Evans rat (8-week old) with an immunopanning technique, according the protocol previously described in young rats by Barres et al. (1988). Briefly, animals were anesthetized and killed by cerebral dislocation and their eyes removed and placed in a solution of phosphate-buffered saline (PBS) containing 1 g/1 of glucose (PBS-glucose; Invitrogen, Carlsbad, Calif., USA). After one rinse in PBS-glucose, retinae were incubated in the same medium containing 33 UI/ml of papain (Worthington, Lakewood, N.J., USA) and 200 UI/ml of DNAse (Sigma-Aldrich, St-Louis, MO, USA) for 30 min at 37° C. They were then rinsed in PBS-glucose, containing 0.15% ovomucoid (Roche Diagnosis, Basel, Switzerland) and 0.15% bovine serum albumin (BSA; Sigma-Aldrich). […]
RGC viability was assessed with the “lived-dead” test (Invitrogen), which consists in labelling viable cells with calcein AM detected as a green fluorescence, whereas dead cell were labelled with ethidium producing a red fluorescence. […] Only lived RCG were counted from seven fields taken on each coverslip using a microscope (Leica DM 5000B, Solms, Germany) equipped for epifluorescence. Viable RCG were counted at 1 day in vitro (DIV) and 6 DIV to calculate the percentage of cell survival.

[4] = tested on: retinal ganglion cells; assay: Episcleral vein occlusion rat model of glaucoma (taurine plasma level, IOP, photopic ERG, Brn-3a RGC count); format: in vivo, Long-Evans rats; conditions: taurine 0.2 M in drinking water, 3 months after occlusion, vs water animals; statistically significant
Description: Long-Evans rats (8-week old) were purchased from Janvier (Le Genest-St-Isle, France) whereas DBA/2J mice (8-month old) were purchased from Charles River (Larbresle, France). Heterozygous P23H rats (line 1) and Sprague Dawley rats (n=7) were bred at Charles River (Saint Aubin-les-Elbeuf, France).
Occlusion of episcleral veins was performed on 8 week-old Long-Evans or Wistar rats as described previously (Mittag et al., 2000). Animals were anesthetized with a mixture Ketamine (100 mg/Kg; Virbac, France) and, Xylazine (10 mg/Kg; Bayer, Leverkusen, Germany), and a local anesthesia (Tetracaine, Laboratoires TVM, Lempdes, France) were administrated on the cornea. At the level of the right eye, three episcleral veins, superonasal, superotemporal and inferotemporal, were emerged by removing the conjunctive tissue. Vein occlusion was realized by cauterization, using Aesculap® bipolar forceps (B. Braun, Melsungen, Germany). […]
IOP was measured from right and left eyes on awake animals using a Tonolab tonometer (Icare, Helsinki, Finland). The tonometer was applied perpendicularly to the cornea and three successive measures were recorded and the average was taken for the final value of IOP.
Photopic ERGs were performed on cauterized and control eyes from rats and DBA2/J mice. […] ERG were recorded using two gold loop electrodes were placed on the corneal surface of each eye and maintained with 3% Ocry-gel. […]

[5] = tested on: retinal ganglion cells; assay: DBA/2J mice, model of pigmentary glaucoma (taurine plasma level, photopic ERG); format: in vivo; conditions: 12-month old DBA/2J mice, taurine supplementation for 4 months vs pure water
Description: Photopic ERGs were performed on cauterized and control eyes from rats and DBA2/J mice. Animals were anesthetized by an intramuscular injection with a solution containing a mixture of Ketamine (100 mg/Kg) and, Xylazine (10 mg/Kg). Pupils were dilated by a topical application of Mydriaticum, Laboratoires Thea, Clermont-Ferrand, France). ERG were recorded using two gold loop electrodes were placed on the corneal surface of each eye and maintained with 3% Ocry-gel. These recording electrodes were respectively referenced with two steel electrodes, inserted sub-cuteanously at the level of each cheek of animals. A needle electrode, also inserted sub-cuteanously, at the level of the basis of the tail served as ground. Responses to light stimulus were amplified, filtered and digitalized using the “Multiliner vision” program.
Statistical analysis of the results was performed on raw data. An unpaired student t test was used to compare means of 2 groups. For more than 2 groups compared, a one-way ANOVA was used for variance analysis, followed in case of significance by a Bonferroni post-hoc test to compare the means of each group. Differences were considered significant at *P<0.05; **P<0.01; and ***P<0.001.

[6] = tested on: retinal ganglion cells; assay: P23H rat model of retinitis pigmentosa, Brn3a immunopositive RGC count in retinal sections; format: in vivo, heterozygous P23H rats
Text: Long-Evans rats (8-week old) were purchased from Janvier (Le Genest-St-Isle, France) whereas DBA/2J mice (8-month old) were purchased from Charles River (Larbresle, France). Heterozygous P23H rats and Sprague Dawley rats (n=7) were bred at Charles River (Saint Aubin-les-Elbeuf, France). For taurine supplementation, animals were divided in two groups: a control group and a group receiving taurine in its drinking water. […] Animals drinking water without added taurine were always considered as control animals.
Animals were anesthetized and killed by cerebral dislocation and their eyes were removed and placed into a fixative solution containing 4% paraformaldehyde (Merck chemicals, Darmstadt, Germany) for 24 hours. Eye cups were isolated and cryoprotected in successive solutions of PBS containing 10%, 20% and 30% sucrose at 4° C., oriented along the dorso-ventral axis and embedded in NEG50® (Microm, Francheville, France). Retinal sections were permeabilized for five minutes in PBS containing 0.1% Triton X-100 (Sigma, St. Louis, Mo.), rinsed, and incubated in PBS containing 1% bovine serum albumin (Sigma) and 0.05% Tween 20 (Sigma) for one hour at room temperature. […] Quantifications were achieved on whole vertical sections cut along the dorso-ventral axis and crossing the optic nerve. […]

[7] = tested on: RGCs in rat retinal explants; assay: NMDA-treated retinal explants, Brn-3a-immunopositive RGC density on flat-mounts; conditions: for RGC density (Brn-3a-immunopositive): mean±s.e.m.
Description: E) Quantification of RGC densities from whole flat-mounted retinal explants using the automated counting platform. […] The scale bar represents 100 μm.
At the end of the incubation, RGCs were immunolabeled with an anti-Brn-3a antibody.

[8] = tested on: optic nerve; conditions: treated infants; Frisen and Malmgren 2003, Viestenz et al. 2003, Buncic et al. 2004; cited from earlier work

For `CC12CC3CC(C)(C1)CC(N)(C3)C2` [memantine], the “RGC neuroprotection in models of glaucoma” value [1] is listed as “exert an RGC neuroprotection”.
For `NCCS(=O)(=O)O` [taurine, 2-aminoethanesulfonic acid], the “number of retinal ganglion cells greater than in VGB-treated group without supplementation” value ([2]; VGB-treated rats with taurine supplementation, p<0.001) was 84.9%, the “increase in number of surviving cells vs control conditions” value [3] was 49% and the “RGC survival at 6 DIV as percentage of that at 1 DIV” value ([3]; control conditions 18.2±1.8%, mean±SEM) was 27.2±3.7%. For the same compound, the “decrease in photopic ERG amplitudes on operated eye” value [4] was “less important than in animals without taurine supplementation”, the “decrease in photopic ERG amplitudes” value [5] was “partially prevented” and the “average RGC number (brn3a immunopositive, retinal sections)” value ([6]; taurine 0.1 M in drinking water from 9 to 12 months, n=6, untreated P23H 298±12, Sprague-Dawley control 411±19, mean±SEM) was 344±8. For the same compound, the RGC loss prevented ([6]; taurine 0.1 M in drinking water, P<0.01 vs untreated P23H) was 40%, the “cell loss rescued by co-incubation with NMDA” value ([7]; 100 μM NMDA plus 1 mM taurine for 4 days) was 22% and the “RGC density (Brn-3a-immunopositive)” value ([7]; 100 μM NMDA plus 1 mM taurine for 4 days, n=23, p<0.05 vs NMDA) was 655.7±44.4 cells/mm2.
In the case of `CN[C@H](CC(=O)O)C(=O)O` [NMDA, N-methyl-D-aspartate, reference compound], the “RGC density (Brn-3a-immunopositive)” value ([7]; 100 μM NMDA for 4 days, control 996.0±26.5, n=31) was 555.6±31.8 cells/mm2 and the “reduction in RGC density vs control” value ([7]; 100 μM NMDA for 4 days, p<0.001) was −44%.
In the case of `C=CC(N)CCC(=O)O` (stereo not drawn) [VGB, Vigabatrin], the “decrease in number of retinal ganglion cells vs control” value ([2]; young rats treated with VGB, p<0.001) is given as 56%, the “number of retinal ganglion cells (Brn3A-positive, retinal sections)” value ([2]; young rats, VGB 0.6 mg/day i.p. for 25 days from age 4 days, control 15.06±0.93, s.e.m., n=10) is given as 6.56±0.32 and the optic nerve atrophy [8] is given as “induced an optic nerve atrophy”.
